From paper PMC12096666, “Synthesis, in vitro and in silico studies of a novel chrysin-ferrocene Schiff base with potent anticancer activity via G1 arrest, caspase-dependent apoptosis and inhibition of topoisomerase II” (Journal of Enzyme Inhibition and Medicinal Chemistry, 2025)
Where “and” joins values, the source holds several entries; their conditions need not be identical. Identical values can stand only once. Values belong to the compound of their own block, whether it stands above or below them.

Legend:
A549 cells = experiment: MTT cell viability assay, A549; type: cell-based; conditions: Homo sapiens, 72 h, mean ± SD of three experiments
Protocol: The MTT assay was conducted as previously reported[20]. Cell lines were seeded at 5x10^4 cells/well and incubated for 24 h. […] After 72 h of incubation, cell viability was assessed using the MTT assay. Media was replaced, followed by the addition of MTT solution. DMSO was later added and optical density was measured at 590 nm using a microplate reader (TECAN, USA). IC50 values were calculated using Graphpad Prism (San Diego, USA). The experiment was repeated three times.

MCF7 cells = experiment: MTT cell viability assay, MCF7; type: cell-based; conditions: Homo sapiens, 72 h, mean ± SD of three experiments
Protocol: (§1) Liver cancer (HepG2), colon cancer (HCT116), lung cancer (A549), breast cancer (MCF7) and normal lung (MRC5) cells were obtained from ATCC (Rockville, USA). Cells were cultured in RPMI-1640 enriched with 10% foetal calf serum and 50 µg/ml gentamycin. They were incubated at 37 °C in a humidified environment containing 5% CO2 and passaged 2–3 times/week.
(§2) The MTT assay was conducted as previously reported. Cell lines were seeded at 5x10^4 cells/well and incubated for 24 h. CFSB was added in twelve concentrations, alongside vehicle controls and vinblastine sulphate as a positive control. After 72 h of incubation, cell viability was assessed using the MTT assay. Media was replaced, followed by the addition of MTT solution. DMSO was later added and optical density was measured at 590 nm using a microplate reader (TECAN, USA). IC50 values were calculated using Graphpad Prism (San Diego, USA). The experiment was repeated three times.

HepG2 cells = experiment: MTT cell viability assay, HepG2; type: cell-based; conditions: Homo sapiens, 72 h, mean ± SD of three experiments
Protocol: as §1, §2

HCT116 cells = experiment: MTT cell viability assay, HCT116; type: cell-based; conditions: Homo sapiens, HCT-116, 72 h, mean ± SD of three experiments
Protocol: as §1, §2

MDA-MB-231 = conditions: triple negative breast cancer cell line; values as low as; cited from earlier work
CDK2 = biological target: T1, CDK2 (Homo sapiens, UniProt P24941); experiment: CDK2 kinase assay; type: biochemical; conditions: mean ± SD of three experiments
T1 construct: purchased BPS Bioscience
Protocol: (§3) CDK2 kinase assay was performed using the CDK2 kinase assay kit (BPS Bioscience, USA) as previously described. The EGFR kinase assay was performed in 96-well plates coated with PGT (poly l-glutamic acid l-tyrosine, Sigma Aldrich, USA) using the EGFR kinase assay kit (BPS Bioscience, USA) and was conducted as previously described. The VEGFR-2 kinase assay was carried out in 96-well streptavidin coated plate using recombinant human VEGFR-2/KDR ELISA kit as previously described. The tropomyosin receptor kinases (TRK) inhibition assay was performed using TrkA assay kit (BPS Bioscience, USA) as per the manufacturer’s instructions. Topoisomerase II assay was performed using the human topoisomerase II relaxation assay kit (Inspiralis, UK) which involved relaxing supercoiled pBR322 DNA substrate by the enzyme. The relaxation assay was conducted as per the manufacturer’s instructions and as previously reported.

TrkA = biological target: T2, TrkA (Homo sapiens, UniProt P04629); experiment: TrkA inhibition assay; type: biochemical; conditions: mean ± SD of three experiments
T2 construct: purchased BPS Bioscience
T2 sequence (P04629 33-796): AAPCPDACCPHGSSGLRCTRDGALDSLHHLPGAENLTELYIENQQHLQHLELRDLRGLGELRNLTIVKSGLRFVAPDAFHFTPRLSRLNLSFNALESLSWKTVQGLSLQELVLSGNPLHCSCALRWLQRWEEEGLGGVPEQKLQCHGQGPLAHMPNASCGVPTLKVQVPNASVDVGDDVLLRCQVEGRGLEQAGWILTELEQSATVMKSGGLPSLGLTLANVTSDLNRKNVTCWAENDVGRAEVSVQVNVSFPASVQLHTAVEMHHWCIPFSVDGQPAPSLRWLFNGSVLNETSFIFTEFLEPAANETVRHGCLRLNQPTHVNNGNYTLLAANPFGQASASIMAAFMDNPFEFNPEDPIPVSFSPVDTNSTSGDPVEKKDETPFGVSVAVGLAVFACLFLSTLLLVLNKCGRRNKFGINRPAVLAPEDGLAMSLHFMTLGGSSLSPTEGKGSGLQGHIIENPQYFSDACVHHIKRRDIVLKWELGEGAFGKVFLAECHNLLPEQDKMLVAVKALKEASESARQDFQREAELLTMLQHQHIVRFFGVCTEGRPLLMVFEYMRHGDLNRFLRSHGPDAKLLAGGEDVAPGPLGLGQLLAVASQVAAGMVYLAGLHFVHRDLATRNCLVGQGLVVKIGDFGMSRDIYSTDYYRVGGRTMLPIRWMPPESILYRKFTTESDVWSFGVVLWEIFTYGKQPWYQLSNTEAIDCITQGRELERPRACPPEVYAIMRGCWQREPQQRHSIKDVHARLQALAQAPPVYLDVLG
Protocol: as §3

VEGFR = biological target: T3, VEGFR (Homo sapiens, UniProt P35968); experiment: VEGFR-2 kinase assay; type: biochemical; conditions: mean ± SD of three experiments
T3 construct: purchased
T3 sequence (P35968 20-1356): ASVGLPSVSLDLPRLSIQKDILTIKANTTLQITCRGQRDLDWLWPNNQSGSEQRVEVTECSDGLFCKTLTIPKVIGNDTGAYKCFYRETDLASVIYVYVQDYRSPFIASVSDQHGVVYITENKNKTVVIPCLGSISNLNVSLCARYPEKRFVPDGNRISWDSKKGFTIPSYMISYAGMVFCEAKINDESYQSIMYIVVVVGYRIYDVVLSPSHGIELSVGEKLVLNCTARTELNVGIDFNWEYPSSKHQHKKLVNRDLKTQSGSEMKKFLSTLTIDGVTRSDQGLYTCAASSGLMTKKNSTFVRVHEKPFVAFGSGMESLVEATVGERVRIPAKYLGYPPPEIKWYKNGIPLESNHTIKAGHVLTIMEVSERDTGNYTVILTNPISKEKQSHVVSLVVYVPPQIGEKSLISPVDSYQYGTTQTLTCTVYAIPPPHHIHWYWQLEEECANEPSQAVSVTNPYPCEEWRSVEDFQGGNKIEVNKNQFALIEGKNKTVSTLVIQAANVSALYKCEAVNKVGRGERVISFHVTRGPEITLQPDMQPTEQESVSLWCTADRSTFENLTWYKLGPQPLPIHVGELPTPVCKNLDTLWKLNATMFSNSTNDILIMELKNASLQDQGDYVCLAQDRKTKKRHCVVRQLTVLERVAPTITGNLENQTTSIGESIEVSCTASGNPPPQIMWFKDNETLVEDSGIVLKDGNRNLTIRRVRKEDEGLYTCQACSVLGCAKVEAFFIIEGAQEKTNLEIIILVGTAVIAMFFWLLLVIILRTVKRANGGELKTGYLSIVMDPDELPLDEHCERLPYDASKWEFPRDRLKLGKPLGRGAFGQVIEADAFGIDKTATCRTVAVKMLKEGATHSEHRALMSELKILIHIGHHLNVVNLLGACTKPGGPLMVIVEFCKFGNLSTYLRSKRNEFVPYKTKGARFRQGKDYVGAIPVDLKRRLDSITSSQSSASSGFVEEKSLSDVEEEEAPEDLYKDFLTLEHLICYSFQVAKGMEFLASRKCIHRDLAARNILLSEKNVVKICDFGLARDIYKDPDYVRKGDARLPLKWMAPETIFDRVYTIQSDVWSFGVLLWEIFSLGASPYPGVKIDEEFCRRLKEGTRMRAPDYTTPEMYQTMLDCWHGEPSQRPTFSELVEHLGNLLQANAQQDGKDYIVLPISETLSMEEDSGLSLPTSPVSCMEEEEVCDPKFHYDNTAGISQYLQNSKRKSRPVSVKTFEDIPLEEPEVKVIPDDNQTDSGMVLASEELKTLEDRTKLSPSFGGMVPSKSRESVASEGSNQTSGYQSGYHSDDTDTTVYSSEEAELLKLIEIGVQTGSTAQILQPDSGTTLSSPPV
Protocol: as §3

EGFR = biological target: T4, EGFR (Homo sapiens, UniProt P00533); experiment: EGFR kinase assay; type: biochemical; conditions: mean ± SD of three experiments
T4 construct: purchased BPS Bioscience
T4 sequence (P00533 25-1210): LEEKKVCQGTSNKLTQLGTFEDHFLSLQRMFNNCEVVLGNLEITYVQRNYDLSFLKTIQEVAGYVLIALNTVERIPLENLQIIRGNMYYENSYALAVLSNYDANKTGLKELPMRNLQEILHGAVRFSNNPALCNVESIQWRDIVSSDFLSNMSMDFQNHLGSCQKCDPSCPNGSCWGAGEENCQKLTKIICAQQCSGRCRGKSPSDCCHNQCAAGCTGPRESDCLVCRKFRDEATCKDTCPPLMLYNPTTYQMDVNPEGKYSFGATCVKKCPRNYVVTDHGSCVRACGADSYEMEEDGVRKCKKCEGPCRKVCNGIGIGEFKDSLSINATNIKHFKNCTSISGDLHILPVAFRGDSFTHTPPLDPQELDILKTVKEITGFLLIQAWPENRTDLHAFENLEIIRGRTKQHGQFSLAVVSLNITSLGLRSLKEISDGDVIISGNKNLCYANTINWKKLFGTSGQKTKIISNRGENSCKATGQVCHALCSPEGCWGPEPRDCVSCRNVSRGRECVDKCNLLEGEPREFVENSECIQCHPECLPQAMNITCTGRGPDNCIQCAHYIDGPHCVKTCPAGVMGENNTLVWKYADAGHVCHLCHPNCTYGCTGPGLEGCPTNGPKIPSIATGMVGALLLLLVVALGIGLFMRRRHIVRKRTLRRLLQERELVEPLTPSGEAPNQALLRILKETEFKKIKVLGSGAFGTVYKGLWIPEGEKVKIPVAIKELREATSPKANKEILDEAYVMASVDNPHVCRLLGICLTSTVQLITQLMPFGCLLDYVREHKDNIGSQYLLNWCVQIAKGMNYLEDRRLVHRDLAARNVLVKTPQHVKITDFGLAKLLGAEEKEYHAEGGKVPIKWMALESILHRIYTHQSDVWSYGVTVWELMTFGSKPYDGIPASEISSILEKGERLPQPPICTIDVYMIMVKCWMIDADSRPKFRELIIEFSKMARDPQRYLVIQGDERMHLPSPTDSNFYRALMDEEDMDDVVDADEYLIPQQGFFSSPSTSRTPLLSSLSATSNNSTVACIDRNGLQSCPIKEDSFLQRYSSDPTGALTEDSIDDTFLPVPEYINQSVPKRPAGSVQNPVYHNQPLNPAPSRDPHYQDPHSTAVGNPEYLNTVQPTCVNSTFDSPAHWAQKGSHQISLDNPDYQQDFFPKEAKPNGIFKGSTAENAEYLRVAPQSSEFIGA
Protocol: as §3

human topoisomerase II = experiment: Human topoisomerase II relaxation assay (pBR322); type: biochemical; conditions: relaxation of supercoiled pBR322 DNA; mean ± SD of three experiments
Protocol: as §3
The potential inhibition of topoisomerase II by CFSB was evaluated using human topoisomerase II assay. This assay involves measuring the ability of topoisomerase II enzyme to relax supercoiled DNA (pBR322)[68].

tubulin = biological target: T5, tubulin (Sus scrofa, UniProt P02550+P02554); experiment: Tubulin polymerisation assay; type: biochemical; conditions: fluorescence, tubulin from porcine brain; mean ± SD of three experiments
T5 construct: polymerisation of tubulin, isolated from porcine brain tissue; purchased Cytoskeleton, Inc; host or cells: porcine brain tissue
T5 sequence (P02554 whole entry): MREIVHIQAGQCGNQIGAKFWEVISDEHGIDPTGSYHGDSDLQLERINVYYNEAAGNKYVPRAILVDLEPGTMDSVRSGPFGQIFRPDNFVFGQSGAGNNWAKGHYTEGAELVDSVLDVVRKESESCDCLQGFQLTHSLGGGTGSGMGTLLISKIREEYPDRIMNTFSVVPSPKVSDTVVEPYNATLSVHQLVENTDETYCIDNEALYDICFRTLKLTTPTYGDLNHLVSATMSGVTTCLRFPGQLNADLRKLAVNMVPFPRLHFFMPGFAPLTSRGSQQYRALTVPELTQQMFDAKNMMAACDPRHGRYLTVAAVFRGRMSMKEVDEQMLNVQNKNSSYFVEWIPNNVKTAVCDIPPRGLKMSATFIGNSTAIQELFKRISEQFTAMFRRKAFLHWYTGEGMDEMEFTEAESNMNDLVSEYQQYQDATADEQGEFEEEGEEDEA
T5 sequence (P02550 whole entry): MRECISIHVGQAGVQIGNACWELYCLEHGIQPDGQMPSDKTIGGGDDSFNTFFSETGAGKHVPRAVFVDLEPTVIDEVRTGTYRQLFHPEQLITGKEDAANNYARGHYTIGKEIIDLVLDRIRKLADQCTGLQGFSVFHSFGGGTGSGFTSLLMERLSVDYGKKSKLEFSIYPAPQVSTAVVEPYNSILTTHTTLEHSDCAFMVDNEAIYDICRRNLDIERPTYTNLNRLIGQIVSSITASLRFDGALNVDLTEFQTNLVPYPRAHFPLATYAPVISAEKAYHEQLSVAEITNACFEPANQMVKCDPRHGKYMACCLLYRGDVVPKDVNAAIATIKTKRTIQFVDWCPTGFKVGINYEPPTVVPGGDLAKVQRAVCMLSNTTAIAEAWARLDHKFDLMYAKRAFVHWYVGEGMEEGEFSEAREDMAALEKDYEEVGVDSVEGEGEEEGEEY
Protocol: The assay was performed using the tubulin polymerisation assay kit (Cytoskeleton, Inc, USA) as per the manufacturer’s instructions and as previously reported. […] Polymerisation dose-response curves were obtained by measuring changes in fluorescence intensity at each compound concentration. Fluorescence was measured at an excitation of 360 nm and emission of 450 nm using a Tecan-spark reader.
A tubulin polymerisation assay was used in order to assess the potential of CFSB as a tubulin polymerisation inhibitor. The assay involved observing the polymerisation of tubulin, isolated from porcine brain tissue, in the presence of CFSB. Changes in polymerisation were monitored via changes in fluorescence intensity.

- IC50 (A549 cells): 4.15 ± 0.31 µM
- IC50 (MCF7 cells): 2.27 ± 0.25 µM
- IC50 (HepG2 cells): 0.89 ± 0.1 µM
- IC50 (HCT116 cells): 1.75 ± 0.19 µM
Structure (SMILES): CC[C@]1(O)C[C@@H]2CN(CCc3c([nH]c4ccccc34)[C@@](C(=O)OC)(c3cc4c(cc3OC)N(C)[C@H]3[C@@](O)(C(=O)OC)[C@H](OC(C)=O)[C@]5(CC)C=CCN6CC[C@]43[C@@H]65)C2)C1 [Vinblastine sulphate]

- IC50 (HCT116 cells): 3.16 ± 0.38 µM
Structure (SMILES): COc1cccc2c1C(=O)c1c(O)c3c(c(O)c1C2=O)C[C@@](O)(C(=O)CO)C[C@@H]3O[C@H]1C[C@H](N)[C@H](O)[C@H](C)O1 [Doxorubicin]

Structure (SMILES): O=C(COc1cc(O)c2c(=O)cc(-c3ccccc3)oc2c1)N/N=C/c1ccc(O)cc1O [Chrysin-De-allyl-Pac-1]
- IC50 (MDA-MB-231): ≥ 5.98 µM

Structure (SMILES): Oc1cc(O)c2c(=N[C]34[CH]5[CH]6[CH]7[CH]3[Fe]6754389%10[CH]4[CH]3[CH]8[CH]9[CH]4%10)cc(-c3ccccc3)oc2c1 (stereo not drawn) [CFSB, cyclopenta-2,4-dien-1-yl(5-((5,7-dihydroxy-2-phenyl-4H-chromen-4-ylidene)amino)cyclopenta-2,4-dien-1-yl)iron]
- IC50 (CDK2): > 100 µM
- IC50 (TrkA): > 100 µM
- IC50 (VEGFR): > 100 µM
- IC50 (EGFR): > 100 µM
- IC50 (human topoisomerase II): 20 µM and 20.1 µM
- IC50 (tubulin): 76 µM and 76.4 µM
